Here are results for one compound from patent US20220326218A1, “COMPOSITION AND METHOD FOR INHIBITING BORC COMPLEX TO TREAT CANCERS WITH NF1 DEFICIENCY AND DYSREGULATED RAS SIGNALING” (THE TRUSTEES OF DARTMOUTH COLLEGE, priority 2019, published 2022).

What all share (assay type): cell-based, human
For one assay, the system named is BNIP3L/Nix. The assay is described as follows: qPCR of BNIP3L/Nix transcript. Conditions: U87-MG. On the technique in general: Real-time PCR tracks product formation cycle by cycle.
The subject of a further assay is p62. The assay can be described thus: Western immunoblotting of autophagy marker p62. Conditions: U87-MG, 12 h treatment +/- 12 h HCQ. As to the method: U87-MG cells were plated at 500,000 cells/well in 6-well plates and allowed to adhere overnight (Falcon). Medium was removed and replaced with fresh medium containing drugs or compounds for the indicated timepoints. Cells were collected after treatment by washing with PBS, harvested with trypsin plus agitation to detach cells, pelleted in a centrifuge and resuspended in PBS to wash. Cells were transferred to 1.5 mL microcentrifuge tubes, pelleted, and resuspended in RIPA lysis buffer (50 mM Tris pH 8.0, 150 mM NaCl, 1% nonidet P40, 0.5% sodium deoxycholate, and 0.05% SDS) containing 1 mM NaVO4, 1 mM NaF, 1 mM phenylmethylsulfonyl fluoride, 0.1 μg/mL antipain, 1 μM aprotinin, 100 μM benzamidine HCl, 0.1 μg/mL leupeptin, 0.1 μg/mL pepstatin, and 0.1 μg/mL soybean trypsin inhibitor. Protein was quantified using a BCA assay kit (Pierce). 50 μg of protein was prepared in 1× Laemmli sample buffer (50 mM Tris pH 6.8, 0.02% w/v bromophenol blue, 2% w/v SDS, 10% v/v glycerol, 1% v/v beta-mercaptoethanol, 12.5 mM EDTA) and separated by SDS-PAGE on a 4-15% polyacrylamide gradient gel (Bio-Rad). […]
Background: A western blot detects proteins with antibodies after separation by electrophoresis.

A further assay deals with U87-MG cells. The assay is described as follows: Flow cytometry cell cycle distribution (DNA content). The conditions noted are these: 2 μM, 24 h. As to the method:
U87-MG cells were plated at 500,000 cells/well in a 6-well plate and allowed to adhere overnight. The medium was replaced with cell culture media containing DMSO, 2 μM Y102, 100 nM Doxorubicin, or 100 μM CoCl2 for 24 hours. At the end of the incubation, cells were rinsed twice with PBS, trypsinized, and rinsed again with PBS prior to fixation with BD cytofix/cytoperm for 30 minutes on ice. After washing with BD perm/wash twice, cells were stained with DAPI at a final concentration 0.33 μg/mL in PBS for 30 minutes on ice. Cells were washed twice more with BD perm/wash, and resuspended in PBS for analysis. The cells were transferred to flow cytometry tubes (14-961-10, Fisherbrand) and analyzed using a MacsQuant VYB 8-color flow cytometer. DNA content was detected using the V1 channel. This experiment was repeated twice, and the percentage of cells in each cell cycle stage is shown. 50,000 events per sample were collected and cellular debris was gated out of the dataset.
On the technique in general: In flow cytometry, cells or beads pass a laser one at a time.

The next assay deals with U251-MG cells. The assay is described as follows: alamarBlue assay, U251-MG. Conditions: up to 3 days, 20 μM to 0.039 μM. As for the experimental part:
Cells were plated at 5,000 cells/well in 96-well plates and allowed to adhere overnight. […] Cells were incubated for 72 h. 3 h prior to end of incubation, alamarBlue (Invitrogen) was added to a final concentration of 5% v/v. Fluorescence was read using a Spectramax M2 at an excitation of 544 nm and an emission of 590 nm, and fluorescence was normalized to DMSO. Each experiment contains 4 technical replicates.

In another assay the test system is cleaved caspase-3. The assay is described as follows: Immunofluorescence staining for cleaved caspase-3. Conditions: U87-MG, 2 μM, 48 h. As to the method: U87-MG cells were plated at a concentration of 50,000 cells/well onto precoated poly-D-lysine (PDL) coverslips (Neuvitro) in 24-well plates (Falcon) and allowed to adhere overnight. Medium was removed and replaced with treatment-laced media normalized to DMSO, and cells were treated for the indicated timepoints. At the time of collection, cells were washed with PBS and fixed with 4% paraformaldehyde without methanol (EMS) or 100% methanol (Fischer). Coverslips were washed with Tween20-containing PBS (PBST; Fischer). Following permeabilization with 0.5% Triton X-100 in PBS (Fischer), coverslips were blocked for 1 h at room temperature in IF Buffer (0.05% azide, 0.2% Triton X-100, 2% Normal Goat Serum or, for 8-OHG, Normal Donkey Serum). The following primary antibodies were used for 1 hour at room temperature unless specified: AlexaFluor 488 pre-conjugated anti-γ-H2AX (N1-431) mouse monoclonal (30 minutes; BD Biosciences), anti-cleaved caspase 3 (Asp175) rabbit polyclonal (Cell Signaling), anti-SQSTM1/p62 (D-3) mouse monoclonal (Santa Cruz), anti-8-Hydroxyguanosine goat polyclonal (1:200; Millipore), anti-LAMP1 (D4O1S) mouse monoclonal (O/N at 4° C.; Cell Signaling), anti-BNIP3L/Nix (D4R4B) rabbit monoclonal (O/N at 4° C.; Cell Signaling), anti-FLAG (M2) mouse monoclonal (2 hours at 37° C.; Sigma-Aldrich). […]

In the case of `Cn1cnnc1S/C=C/C(=O)c1ccc(F)cc1` [Y102], the “BNIP3L/Nix RNA levels versus DMSO” value with BNIP3L/Nix is given as “little difference”. Also, the “p62 expression (western immunoblotting)” value in the assay with p62 was “increased”. Also, the “cell cycle arrest (cell cycle distribution by DNA content)” value with U87-MG cells was “no indication”. The “sensitivity of NF1-deficient cell line to treatment” value in the assay on U251-MG cells is given as “sensitive”. Besides, the “amount of cleaved caspase-3 versus vehicle control” value in the assay with cleaved caspase-3 was “No difference”.
